This is an account of results in patent US20160120915A1, “METHODS FOR MANIPULATING IMMUNE RESPONSES BY ALTERING MICROBIOTA” (NEW YORK UNIVERSITY, priority 2013, published 2016).

In assay [1] the test system is terminal ileum. The assay can be described thus: PAT: ileal expression by qPCR in 6-week mice. As to conditions: 6-week male mice, 3 pulses, vs control, p<0.05. Format: in vivo, C57BL/6 mice. Here is the method: Total RNA was extracted from mouse tissues using the RNeasy Mini Kit (Qiagen), according to the manufacturer's instructions. Total RNA was reverse transcribed to cDNA using the Verso™ cDNA Synthesis Kit (Thermo Scientific). To generate standards for expression analysis of each target gene, the cDNA region of interest was PCR-amplified and the PCR product was cloned into pGEM-T easy (Promega). qPCR was performed with LightCycler 480 SYBR Green I Master mix (Roche) and run in a LightCycler 480 system (Roche). Target mRNA was normalized to GAPDH mRNA as an internal control in each sample.
C57BL/6 mice were fed a standard diet after weaning, and exposed to 3 pulses of therapeutic dose antibiotics (Amoxicillin or Tylosin), or no antibiotics, via their drinking water, all before 6 weeks of age. Mice were sacrificed at 6 weeks of age.
The distal ileum (1 cm) without Peyer's Patches was collected from each mouse for RNA extraction and kept in RNAlater (Ambion) overnight at 4° C. Samples were stored at −80° C. until RNA extraction was performed.
Panel A: Mice were exposed to 3 pulses of antibiotics (Amoxicillin or Tylosin), or no antibiotics, via breast milk or drinking water at the indicated time points. Panel B: Male mice, including 5 Control, 4 Amoxicillin, and 6 Tylosin, were fed a normal diet. They were sacrificed at 6 weeks of age and the terminal[1 cm] ileum without Peyer's Patches [TI-] was collected.
Ileal expression of T-bet and IFN-γ [Th1], GATA3 and IL-4 [Th2], Foxp3, and TGFβ1 [Treg], and RORγt, IL-17A, and IL-17F [Th17] (Control n=5, Amoxicillin n=4, Tylosin n=6) was quantitated with qPCR and normalized by GAPDH expression. Expression of T-bet and IFNγ [Th1] (p<0.05) and IL-17A and IL-17F [Th17] […] Foxp3 and RORγt were lower in Tylosin than control. This example extends the earlier observation that continuous antibiotics affect ileal immune cell populations and effectors by showing that pulses are sufficient to produce similar effects.
(Quantitative PCR measures a nucleic acid by following its amplification.)

In assay [2] the test system is terminal ileum. The assay can be described thus: PAT: ileal gene expression profiling by whole genome microarray, 6-week mice. It is filed as in vivo, C57BL/6 mice. The conditions noted are these: 6-week PAT vs Control, T-test p<0.05 and fold change ≧1.2 or ≦0.8. Here is the method: Ileal gene expression profiling of STAT, PAT, and control animal groups, was performed using the Affymetrix Genechip system (Affymetrix). Total RNA quality and quantity were determined using the Agilent 2100 Bioanalyser and Nanodrop ND-1000. Total RNA (100 ng) was used to prepare cDNA following the Affymetrix […] Express Kit labelling protocol (Affymetrix). Standardized array processing procedures recommended by Affymetrix were performed, including hybridization, fluidics processing and scanning of the Affymetrix MG-430 2.0 arrays. GeneSpring GX11 software (Agilent Technologies) was used to normalize the raw data (Affymetrix CEL files) by Robust Multichip Average algorithm (RMA).
1127 and 3065 reproducibly regulated genes were identified from ˜45,000 genes of the mouse genome by T-test (p<0.05) and fold change (≧1.2 or ≦0.8) in 6-week PAT (Panel A; Control vs Amoxicillin and Panel B; Control vs Tylosin), respectively (FIG. 22). DAVID analysis was performed using the regulated genes, and Gene Set Enrichment analysis (GSEA) was performed using whole gene data.
(C, n=3), amoxicillin (A, n=3), and tylosin treated mice (T, n=3).

For assay [3] the following is noted: asthma; cited from earlier work.

As to `CC1(C)S[C@@H]2[C@H](NC(=O)[C@H](N)c3ccc(O)cc3)C(=O)N2[C@H]1C(=O)O` [Amoxicillin], in the assay with terminal ileum [1], the “ileal expression of IFNγ [Th1]” value was “significantly lower”, the “ileal expression of IL-17A [Th17]” value is “significantly lower”, the “ileal expression of IL-17F [Th17]” value is “significantly lower” and the “ileal expression of T-bet [Th1]” value is listed as “significantly lower”. The “reproducibly regulated genes out of ~45,000 genes of the mouse genome” value in the assay with terminal ileum [2] is listed as 1127.

Regarding `CC[C@H]1OC(=O)[C@H](C)[C@@H](O[C@H]2C[C@@](C)(OC)[C@@H](O)[C@H](C)O2)[C@H](C)[C@@H](O[C@@H]2O[C@H](C)C[C@H](N(C)C)[C@H]2O)[C@](C)(OC)C[C@@H](C)C(=O)[C@H](C)[C@@H](O)[C@]1(C)O` [clarithromycin], in assay [3], the “airway hyperresponsives (AHR)” value is reported as “reduced” and the neutrophilic inflammation result is given as “reduced”.
